Experimental data from US7618986B2, “Method of treating latent tuberculosis” (priority 2006, dated 2009).
≈ marks a conversion by molar mass, not a printed value. Structures can show the parent of a compound that is named as a salt. Where two headings read alike, the source gives them in different places.

Key:
[1] = tested on: Mycobacterium tuberculosis H37Rv; details: MABA, 7H12 media, 90% reduction in fluorescence; cited from earlier work
M. tuberculosis H37Rv [2] = test: Hypoxic (anaerobic) clonogenic MBC assay, dormant H37Rv; type: cell-based; details: for MBC: Mycobacterium tuberculosis
VERO cells = test: Cytotoxicity against VERO cells (MTT, 72 hours exposure); type: cell-based; details: for IC50: Chlorocebus sabaeus, Vero, read-out: IC50 in VERO cells
M. tuberculosis H37Rv [3] = details: hypoxic MBC assay; cited from earlier work
[4] = in vivo, po, 600 mg; cited from earlier work
[5] = tested on: Mycobacterium tuberculosis H37Rv; test: Microplate Alamar Blue Assay (MABA), aerobic; type: cell-based
Toxicity study in dogs = type: in vivo; details: i.v. daily 10.95 mg/kg
[6] = Toxicity (MTD, adverse effects) in mice; type: in vivo
From the text: determination of MTD ([…], MTD) in vivo (C57BL/6 female mice, i.p. administration of single doses, 1 week duration); and
(§1) An oral MTD was not determined.

[7] = Water solubility and stability of aqueous stock solutions; type: physicochemical; details: for solubility in water: hydrochloride salt
Protocol: Commercially available 4,7-dichloroquinoline (1) first was converted to the 4-fluoro-derivative (2) by refluxing for 6 hours in DMSO with lyophilized potassium fluoride (KF) (1.5 eq) from a 5% aqueous solution.
HRMS (VG 70-250SE mass spectrometer): Calculated for C16H16ClN5O2 (free amine): m/z 345.0992. […] FAB (VG 70-250SE mass spectrometer). Calculated for C16H17ClN5O2 (M+): m/z 346.

Toxicity study in rats = type: in vivo; details: i.v. daily 16 mg/kg, female rats
[8] = Stability in human plasma; type: in vitro ADME
[9] = Plasma concentration after administration to CD2F1 mice; type: in vivo
From the text: as §1

[10] = H37RV, present day anti-TB drugs as positive controls, read-out: H37Rv MBC (hypoxic assay)
[11] = dormant H37Rv cells, ranges depending on the assay (Table 2), read-out: MBC (minimum bactericidal concentration)
[12] = dormant H37Rv cells, ranges depending on the assay (Table 2)
[13] = H37RV, read-out: MBC (minimum bactericidal concentration)
[14] = present day anti-TB drugs as positive controls
[15] = H37RV, pH 6.7, read-out: H37Rv MBC (hypoxic)
[16] = pH 6.7, read-out: % Inh (aerobic)

Q: With `NNC(=O)c1ccncc1` [Isoniazid, isoniazid] as the molecule, how does the “expected MIC range (quality control)” value [1] read?
A: The value was 0.025 to 0.1 µg/mL.

Q: What about the MBC (M. tuberculosis H37Rv [2]; [10]) of the same molecule?
A: The MBC was > 100 µg/mL.

Q: What about the MBC (M. tuberculosis H37Rv [2]; [11]) of the same molecule?
A: Its MBC is > 100 µg/mL.

Q: And the “MBC (minimum bactericidal concentration)” value (M. tuberculosis H37Rv [2]; [12])?
A: Its value is > 100 µg/mL.

Q: For `CC[C@H]1OC(=O)[C@H](C)[C@@H](O[C@H]2C[C@@](C)(OC)[C@@H](O)[C@H](C)O2)[C@H](C)[C@@H](O[C@@H]2O[C@H](C)C[C@H](N(C)C)[C@H]2O)[C@](C)(OC)C[C@@H](C)C(=O)[C@H](C)[C@@H](O)[C@]1(C)O` [Clarithromycin, clarithromycin], which MBC (M. tuberculosis H37Rv [2]; [10]) is on record?
A: The MBC was > 312 µg/mL.

Q: And the MBC (M. tuberculosis H37Rv [2]; [11])?
A: The MBC was > 312 µg/mL.

Q: What about the “MBC (minimum bactericidal concentration)” value (M. tuberculosis H37Rv [2]; [12]) of the same molecule?
A: The value was > 312.5 µg/mL.

Q: With `O=[N+]([O-])c1cn2c(n1)OC[C@@H](OCc1ccc(OC(F)(F)F)cc1)C2` [PA-824] as the molecule, how does the MBC (M. tuberculosis H37Rv [2]; [13]) read?
A: The MBC was 6.4 to 12.8 µg/mL (≈ 17.8 to 35.6 µM).

Q: What about the IC50 (VERO cells; toxicity) of the same molecule?
A: Its IC50 is > 640 µg/mL.

Q: And the “SI, selectivity index (IC50/MBC)” value (VERO cells; VERO IC50 / MBC dormant H37Rv)?
A: The value was >50-100.

Q: And the “IC50 in VERO cells” value (VERO cells; toxicity)?
A: The value was >640 µg/mL.

Q: With capreomycin as the molecule, how does the “MBC (minimum bactericidal concentration)” value (M. tuberculosis H37Rv [2]; [12]) read?
A: The value was 37.5 µg/mL.

Q: And the “H37Rv MBC (hypoxic assay)” value (M. tuberculosis H37Rv [2]; [14])?
A: The value was 37.5 µg/mL.

Q: For `Cc1ncc([N+](=O)[O-])n1CCO` [Metronidazole, metronidazole], which “activity in hypoxic assay” value (M. tuberculosis H37Rv [3]) is on record?
A: The value was “activity is observed only at very high concentrations”.

Q: Which MBC (M. tuberculosis H37Rv [2]; [10]) does the source give for `[H]/N=C(/N)N[C@H]1[C@H](O)[C@@H](O)[C@H](O[C@@H]2O[C@@H](C)[C@](O)(C=O)[C@H]2O[C@@H]2O[C@@H](CO)[C@H](O)[C@@H](O)[C@@H]2NC)[C@@H](N/C(N)=N\[H])[C@@H]1O` [Streptomycin, streptomycin] here?
A: Its MBC is 12.5 µg/mL (≈ 21.5 µM).

Q: And the MBC (M. tuberculosis H37Rv [2]; [11])?
A: The MBC was > 12.5 µg/mL.

Q: What about the “MBC (minimum bactericidal concentration)” value (M. tuberculosis H37Rv [2]; [12]) of the same molecule?
A: The value was > 12.5 µg/mL.

Q: Which results are given for `CO[C@H]1/C=C/O[C@@]2(C)Oc3c(C)c(O)c4c(O)c(c(/C=N/N5CCN(C)CC5)c(O)c4c3C2=O)NC(=O)/C(C)=C\C=C\[C@H](C)[C@H](O)[C@@H](C)[C@@H](O)[C@@H](C)[C@H](OC(C)=O)[C@@H]1C` [Rifampin, rifampin]?
A: MBC (M. tuberculosis H37Rv [2]; [10]): 2.5 µg/mL (≈ 3.04 µM); MBC (M. tuberculosis H37Rv [2]; [11]): 2.5 µg/mL (≈ 3.04 µM); Cmax [4]: 8000 ng/mL

Q: Which results are given for `Cc1nc(C(F)(F)F)nc(NCCCn2ccnc2[N+](=O)[O-])c1C` [CF3PM]?
A: MBC (M. tuberculosis H37Rv [2]; [15]): 7.01 to 25 µg/mL (≈ 20.4 to 72.6 µM); inhibition at 6.25 µg/mL ([5]; aerobic conditions, 6.25 μg/mL, pH 6.7-6.8, read-out: % Inh (aerobic)): 23%

Q: With `CN(C)c1ccc(O)c2c1C[C@H]1C[C@H]3[C@H](N(C)C)C(O)=C(C(N)=O)C(=O)[C@@]3(O)C(O)=C1C2=O` [Minocyclin, minocyclin] as the molecule, how does the “MBC (minimum bactericidal concentration)” value (M. tuberculosis H37Rv [2]; [12]) read?
A: Its value is >156.25 µg/mL.

Q: What about the “MBC (minimum bactericidal concentration)” value (M. tuberculosis H37Rv [2]; dormant H37Rv cells, ranges depending on the assay (Table 2), listed as minocyclin) of the same molecule?
A: Its value is > 156.25 µg/mL.

Q: What about the “H37Rv MBC (hypoxic assay)” value (M. tuberculosis H37Rv [2]; [14]) of the same molecule?
A: The value was 156.25 µg/mL.

Q: Which adverse effects (Toxicity study in dogs) does the source give for `O=[N+]([O-])c1nccn1CCCNc1ccnc2cc(Cl)ccc12` [NLCQ-1, 4-[3-(2-Nitro-1-imidazolyl)-propylamino]-7-chloroquinoline hydrochloride] here?
A: Its adverse effects is “no adverse effects”.

Q: And the MTD at 1 week ([6]; female, C57BL/6, mouse, in vivo, ip, single dose)?
A: Its MTD at 1 week is 30 mg/kg.

Q: What about the adverse effects ([6]; i.p. 30 mg/kg bolus or 45 mg/kg as 3 fractions of 15 mg/kg every two hours daily, mice) of the same molecule?
A: Its adverse effects is “no adverse effects”.

Q: What about the MTD ([6]; mouse, in vivo, ip, multiple doses) of the same molecule?
A: Its MTD is ≥ 45 mg/kg.

Q: What about the MBC (M. tuberculosis H37Rv [2]; [15]) of the same molecule?
A: The MBC was 3.1 µg/mL.

Q: What about the MBC (M. tuberculosis H37Rv [2]; [13]) of the same molecule?
A: Its MBC is 3.1 to 18.4 µg/mL.

Q: What about the “hydrophilicity (aqueous solubility) compared with PA-824” value [7] of the same molecule?
A: The value was “more hydrophilic”.

Q: What about the “solubility in water” value [7] of the same molecule?
A: The value was “soluble in water”.

Q: And the adverse effects (Toxicity study in rats)?
A: The adverse effects was “no adverse effects”.

Q: What about the “stability in human plasma” value [8] of the same molecule?
A: Its value is “good stability in human plasma”.

Q: What about the IC50 (VERO cells) of the same molecule?
A: Its IC50 is 147 µg/mL.

Q: And the peak plasma concentration ([9]; i.p. injection of 10 mg/kg)?
A: Its peak plasma concentration is 8.9 µg/mL.

Q: What about the bioavailability ([9]; mouse, plasma, oral administration of 10 mg/kg) of the same molecule?
A: Its bioavailability is 29%.

Q: And the peak plasma concentration ([9]; oral administration of 10 mg/kg)?
A: The peak plasma concentration was 0.461 µg/mL.

Q: What about the inhibition at 6.25 µg/mL [5, 16] of the same molecule?
A: Its inhibition at 6.25 µg/mL is 0%.

Q: What does the source list for `O=[N+]([O-])c1nccn1CCCCNc1ccnc2cc(Cl)ccc12` [NLCQ-2, 4-[4-(2-nitro-1-imidazolyl)-butylamino]-7-chloroquinoline hydrochloride]?
A: MBC (M. tuberculosis H37Rv [2]; [15]): 6.25 µg/mL; MBC (M. tuberculosis H37Rv [2]; [13]): 4.9 to 9.8 µg/mL; hydrophilicity (aqueous solubility) compared with PA-824 [7]: more hydrophilic; solubility in water [7]: soluble in water; IC50 (VERO cells): > 640 µg/mL; IC50 in VERO cells (VERO cells; toxicity, hydrochloride): >640 µg/mL; inhibition at 6.25 µg/mL [5, 16]: 0%
